IC50 data for 72 compounds are collected here from patent US10774051B2, “6-membered heterocyclic derivatives and pharmaceutical composition comprising the same” (Shionogi & Co., Ltd., priority 2015, dated 2020).

The target of this assay is human P2X7 receptor (Homo sapiens, UniProt Q99572, R270H/Y155H). Briefly: Evaluation of human P2X7 receptor inhibitory activity (Yo-Pro uptake, BzATP stimulation, FLIPR TETRA). The format is cell-based. Summed up:
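1321N1 cells stably expressing human P2X7 (T606C/G952A SNP variant), in HBSS buffer pH 7.4-7.5 with Yo-Pro, stimulated with BzATP; compound added 8 min after agonist. Fluorescence followed for 20 min on FLIPR; max-minus-min change gave % inhibition, IC50 by logistic fit.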

Setting [1] is: antagonistic activity for the human P2X7 receptor, read-out: IC50.
Where [2] appears, read: 1321N1 cells stably expressing human P2X7 receptor, BzATP stimulation, Yo-Pro uptake, read-out: IC50 (antagonistic activity for the human P2X7 receptor), class symbol.
Setting [3] is: 1321N1 cells stably expressing human P2X7 receptor, BzATP stimulation, Yo-Pro uptake, read-out: IC50 (antagonistic activity for the human P2X7 receptor).

Molecules are shown by their SMILES. Like-named read-outs stand apart in the source and are kept apart here.

As usually defined, the IC50 is the concentration needed to halve the response being measured.

For the compound `Cc1cc(N(C)C)ccc1Nc1nc(=O)c(F)cn1Cc1cc(F)cc(F)c1` [Compound I-1241], the IC50 under setting [1] is under 10 nM.
Same read-out and setting: in the case of `COc1cn(Cc2ccccc2)c(Nc2cc(F)c(Cl)cc2C)nc1=O` [Compound I-0886] it was 10 to 100 nM; in that of `CCc1cc2c(cc1Nc1nc(=O)c(OC)cn1Cc1ccccc1)OC(F)(F)O2` [Compound I-0728], 100 to 500 nM.
The same measure, in the same setting: in the case of `COc1cn(Cc2cccc(F)c2)c(Nc2cccc(OC(F)F)c2C)nc1=O` [Compound I-0641] it was 10 to 100 nM.
With `Cc1c(Cl)cccc1Nc1nc(=O)c(Cl)cn1Cc1ccc(F)c(F)c1` [Compound I-0472], the IC50 under setting [2] is under 10 nM.
Still for that read-out and setting: in the case of `CCc1ccc(Cl)cc1Nc1nc(=O)c(OC)cn1Cc1ccc(F)cc1` [Compound I-0388] it was 10 to 100 nM; in that of `Cc1c(Cl)cccc1Nc1nc(=O)c(C(=O)O)cn1Cc1ccccc1` [Compound I-0018], 100 to 500 nM.
With `Cc1nc2cc(C)c(Nc3nc(=O)c(Cl)cn3Cc3ccccc3)cc2s1` [Compound I-0786], the IC50 under setting [3] stood at 25 nM.
On the same count and under the same terms, in the case of `COc1cn(Cc2ccccc2)c(Nc2cccc3c2CCC3)nc1=O` [Compound I-0062] it was 590 nM.
Regarding `Cc1c(Cl)cccc1Nc1nc(=O)c(CC(=O)N(C)C)cn1Cc1ccccc1` [Compound I-0331], under setting [2], the concentration for half-maximal inhibition (IC50) fell in the range of 100 to 500 nM.
As to `COc1ccc(Nc2nc(=O)c(C)cn2Cc2cc(F)c(F)c(F)c2)c(C)c1` [Compound I-1154], under setting [1], the IC50 was under 10 nM.
In the case of `COc1cn(Cc2ccccc2)c(Nc2cc(-c3ncco3)ccc2C)nc1=O` [Compound I-0558], the IC50 under setting [2] was 10 to 100 nM.
Take `Cc1nc2cc(C)c(Nc3nc(=O)c(F)cn3Cc3ccccc3)cc2s1` [Compound I-0788]: the 50% inhibitory concentration (IC50) under setting [3] came to 12 nM.
The same measure, in the same setting: under `COc1cn(Cc2ccc(F)c(Cl)c2)c(N[C@@H]2CCc3ccccc32)nc1=O` [Compound I-0335] stands 170 nM; under `Cc1ccc(C)c(Nc2nc(=NO)c(F)cn2Cc2cc(F)c(F)c(F)c2)c1` [Compound I-1290], 21 nM.
Consider `Cc1cc2c(cc1Nc1nc(=O)c(F)cn1Cc1ccc(F)c(Cl)c1)OCCO2` [Compound I-0369], for which the IC50 under setting [2] is under 10 nM.
For the compound `COc1cn(Cc2cccc(F)c2)c(Nc2cc(C)c(OC(F)F)cc2C)nc1=O` [Compound I-0300], the IC50 under setting [2] is under 10 nM.
Take `COc1cn(Cc2cc(F)c(F)c(F)c2)c(Nc2cc3c(cc2C)OCCO3)nc1=O` [Compound I-0708]: the IC50 under setting [1] is under 10 nM.
For the compound `COc1cn(Cc2ccccc2COC(F)F)c(Nc2cccc(Cl)c2C)nc1=O` [Compound I-0463], under setting [2], the IC50 is under 10 nM.
Still for that read-out and setting: under `COc1cn(Cc2ccc(F)c(Cl)c2)c(Nc2cc(-n3c(C)ccc3C)ccc2C)nc1=O` [Compound I-0526] stands 10 to 100 nM; under `CCOc1ccc(C)c(Nc2nc(=O)c(OC)cn2Cc2cccc(Cl)c2)c1` [Compound I-0456], 10 to 100 nM; under `COc1cn(Cc2cc(F)cc(F)c2)c(Nc2cc(C)ccc2C)nc1=O` [Compound I-0436], under 10 nM.
Regarding `COc1cc(C)c(Nc2nc(=O)c(F)cn2Cc2cc(F)cc(F)c2)cc1F` [Compound I-1101], the IC50 under setting [1] fell in the range of 10 to 100 nM.
For `Cc1c(Cl)cccc1Nc1nc(=O)c(CC(N)=O)cn1Cc1ccccc1` [Compound I-0026], the concentration for half-maximal inhibition (IC50) under setting [2] lay within 10 to 100 nM.
Consider `CCc1cc2c(cc1Nc1nc(=O)c(OC)cn1Cc1cccc(Cl)c1)CCC2` [Compound I-0164], for which, under setting [2], the IC50 is under 10 nM.
`COc1cn(Cc2ccccc2)c(Nc2cc(-c3cnccn3)ccc2C)nc1=O` [Compound I-0663]: the IC50 under setting [1] fell in the range of 10 to 100 nM.
Regarding `COc1cn(Cc2ccc(Cl)s2)c(Nc2cc(C)c(C)cc2C)nc1=O` [Compound I-0808], the IC50 under setting [1] was under 10 nM.
Turning to `COc1cn(Cc2cc(F)cc(Cl)c2)c(Nc2ccc(OC(F)(F)F)cc2C)nc1=O` [Compound I-0609], under setting [1], the IC50 lay within 100 to 500 nM.
Same read-out and setting: in the case of `COc1cn(Cc2cc(F)c(F)c(F)c2)c(Nc2cc(OCC(F)(F)F)ccc2C)nc1=O` [Compound I-0932] it was 10 to 100 nM.
As to `CCc1cc(OC)ccc1Nc1nc(=O)c(OC)cn1Cc1ccccc1` [Compound I-0235], the IC50 under setting [2] is 10 to 100 nM.
On the same count and under the same terms, in the case of `COc1cn(Cc2ccccc2OC(F)F)c(Nc2cccc(Cl)c2C)nc1=O` [Compound I-0457] it was under 10 nM.
With `COc1ccc(Nc2nc(=O)c(F)cn2Cc2cc(F)cc(F)c2)c(C)n1` [Compound I-1037], the IC50 under setting [1] lay in the range of 10 to 100 nM.
Take `COc1cn(Cc2cccc(F)c2)c(Nc2cc(C)c(F)cc2C)nc1=O` [Compound I-0442]: the IC50 under setting [2] is under 10 nM.
As to `COc1ccc(Nc2nc(=O)c(Cl)cn2Cc2ccc(F)c(F)c2)c(C)c1` [Compound I-0844], the IC50 under setting [1] is under 10 nM.
Same read-out and setting: in the case of `Cc1ccc(F)cc1Nc1nc(=O)c(CO)nn1Cc1cc(F)c(F)c(F)c1` [Compound I-1253] it was 10 to 100 nM.
`COc1cn(Cc2ccc(Cl)c(F)c2)c(Nc2cc3c(cc2C)OCCO3)nc1=O` [Compound I-0293]: the IC50 under setting [2] was in the range of 10 to 100 nM.
Same read-out and setting: under `COc1cn(Cc2cc(F)cc(F)c2)c(Nc2cccc(OC(C)C)c2C)nc1=O` [Compound I-0514] stands 10 to 100 nM.
`COCc1cn(Cc2cc(F)c(F)c(F)c2)c(Nc2cc3c(cc2C)COC3)nc1=O` [Compound I-1126]: the IC50 under setting [1] lay in the range of 10 to 100 nM.
Still for that read-out and setting: under `Cc1nc2[nH]ccc2cc1Nc1nc(=O)c(F)cn1Cc1cc(F)c(F)c(F)c1` [Compound I-1017] stands 10 to 100 nM.
On to `COc1cn(Cc2ccccc2)c(Nc2c(C)cccc2C)nc1=O` [Compound I-0724], for which, under setting [1], the IC50 fell in the range of 100 to 500 nM.
On the same count and under the same terms, under `Cc1nc2ccc(Nc3nc(=O)c(F)cn3Cc3cc(F)cc(F)c3)c(C)c2s1` [Compound I-1198] stands under 10 nM.
Consider `COc1cn(Cc2cccc(Cl)c2)c(Nc2cc(C)c(OC(F)F)cc2C)nc1=O` [Compound I-0299], for which the IC50 under setting [2] was 10 to 100 nM.
The same measure, in the same setting: under `CCc1cc(OC)c(OC)cc1Nc1nc(=O)c(F)cn1Cc1ccc(F)cc1` [Compound I-0267] stands under 10 nM.
For `COc1cn(Cc2cc(F)cc(Cl)c2)c(Nc2cc3[nH]ncc3cc2C)nc1=O` [Compound I-0580], under setting [2], the IC50 is 10 to 100 nM.
As to `COc1cn(Cc2ccc(F)c(Cl)c2)c(Nc2cc(F)c(Cl)cc2C)nc1=O` [Compound I-0887], the IC50 under setting [1] was in the range of 10 to 100 nM.
`COc1cn(Cc2cc(F)cc(Cl)c2)c(Nc2cc(C)cc3[nH]ccc23)nc1=O` [Compound I-0649]: the IC50 under setting [1] lay in the range of 10 to 100 nM.
Take `COc1cc(C)cc(Nc2nc(=O)c(OC)cn2Cc2ccc(F)c(Cl)c2)c1C` [Compound I-0477]: the IC50 under setting [2] was under 10 nM.
On to `CCc1cc2c(cc1Nc1nc(=O)c(OC)cn1Cc1ccccc1)OCCO2` [Compound I-0796], for which, under setting [1], the IC50 was in the range of 10 to 100 nM.
For `COc1cn(Cc2ccc(F)c(Cl)c2)c(Nc2cc3ncccc3cc2C)nc1=O` [Compound I-0771], the IC50 under setting [3] amounted to 43 nM.
With `COc1cn(Cc2ccc(F)c(F)c2)c(Nc2cc(N3CCOCC3)ccc2C)nc1=O` [Compound I-0736], the IC50 under setting [1] is 10 to 100 nM.
Still for that read-out and setting: under `COc1cn(Cc2cc(F)cc(Cl)c2)c(Nc2cc(-c3cccnc3)ccc2C)nc1=O` [Compound I-0765] stands 10 to 100 nM.
Same read-out and setting: in the case of `COc1cc(Nc2nc(=O)c(OC)cn2Cc2cc(F)cc(Cl)c2)c(C)cc1F` [Compound I-0780] it was 10 to 100 nM.
On the same count and under the same terms, under `COc1cc(C)c(Nc2cc(=O)c(OC)cn2Cc2ccc(F)c(Cl)c2)cc1C` [Compound I-0954] stands 10 to 100 nM.
As to `COc1cn(Cc2ccc(F)cc2)c(Nc2ccc(C)cc2C)nc1=O` [Compound I-0375], the IC50 under setting [2] lay within 10 to 100 nM.
Same read-out and setting: in the case of `COc1cn(Cc2ccc(F)c(Cl)c2)c(Nc2cc(OCC(F)(F)F)ccc2C)nc1=O` [Compound I-0497] it was 10 to 100 nM.
Take `Cc1nc2cc(Cl)c(Nc3nc(=O)c(F)cn3Cc3cc(F)c(F)c(F)c3)cc2s1` [Compound I-1182]: under setting [1], the IC50 is under 10 nM.
Take `COc1cn(Cc2ccccc2)c(Nc2cc(C(F)(F)F)ccc2C)nc1=O` [Compound I-0097]: under setting [2], the IC50 lay in the range of 100 to 500 nM.
Take `COc1cn(Cc2cc(F)cc(F)c2)c(Nc2cc(-c3nnco3)ccc2C)nc1=O` [Compound I-0599]: under setting [1], the concentration for half-maximal inhibition (IC50) was in the range of 10 to 100 nM.
In the case of `COc1cn(Cc2cc(F)cc(F)c2)c(Nc2cc3ncccc3cc2C)nc1=O` [Compound I-0774], the 50% inhibitory concentration (IC50) under setting [3] stood at 110 nM.
The same measure, in the same setting: under `COc1ccc(C)c(Oc2cc(=O)c(OC)cn2Cc2ccc(F)c(Cl)c2)c1` [Compound I-0961] stands 410 nM.
In the case of `COc1ccc(Nc2nc(=O)c(OC)cn2Cc2cccc(F)c2)c(C)c1` [Compound I-0249], the IC50 under setting [2] is under 10 nM.
With `CCc1cc(Br)ccc1Nc1nc(=O)c(OC)cn1Cc1cc(F)cc(Cl)c1` [Compound I-0656], the IC50 under setting [1] was in the range of 10 to 100 nM.
Take `COc1cc(C)c(Nc2nc(=O)c(F)cn2Cc2ccc(F)cc2)cc1OC` [Compound I-0209]: under setting [2], the IC50 is under 10 nM.
Turning to `COCc1cccc(Nc2nc(=O)c(OC)cn2Cc2ccccc2)c1C` [Compound I-0352], the IC50 under setting [2] was in the range of 100 to 500 nM.
With `COc1cn(Cc2ccccc2)c(NC2C[C@@H]3CC[C@H]2C3)nc1=O` (stereo partly drawn) [Compound I-0042], the IC50 under setting [3] amounted to 830 nM.
As to `Cc1cc(C)c(Nc2nc(=O)c(F)cn2Cc2ccc(F)cc2)cc1C` [Compound I-0306], under setting [2], the IC50 is under 10 nM.
For the compound `COc1cn(Cc2ccccc2)c(Nc2ccc3nc(C)sc3c2C)nc1=O` [Compound I-0858], under setting [3], the IC50 worked out at 10 nM.
In the case of `COc1cc(C)c(Nc2nc(=O)c(OC)cn2Cc2cccc(F)c2)cc1Cl` [Compound I-0614], the half-inhibitory concentration (IC50) under setting [1] was under 10 nM.
Consider `COc1cn(Cc2ccccc2)c(Nc2cccc(Oc3ccccn3)c2C)nc1=O` [Compound I-0198], for which, under setting [2], the IC50 was in the range of 100 to 500 nM.
The same measure, in the same setting: under `COc1cn(Cc2ccc(F)cc2)c(Nc2cccc(C(F)(F)F)c2Cl)nc1=O` [Compound I-0038] stands 10 to 100 nM.
As to `COc1ccc(Nc2nc(=O)c(Cl)cn2Cc2ccc(F)c(Cl)c2)c(C)c1` [Compound I-0843], the IC50 under setting [1] lay within 10 to 100 nM.
With `COc1cn(Cc2cc(F)cc(F)c2)c(Nc2ccc(N3CCOCC3)cc2C)nc1=O` [Compound I-0543], under setting [2], the IC50 lay in the range of 10 to 100 nM.
